Results: patent US20060281771A1, “SYNERGISTIC MODULATION OF FLT3 KINASE USING AMINOQUINOLINE AND AMINOQUINAZOLINE KINASE MODULATORS” (priority 2005, published 2006)
“Also recorded” adds a separate entry of the source.

How the values were obtained:
[1] = target: T1, isolated kinase domain of the human FLT3 receptor (a.a. 571-993) (Homo sapiens, UniProt P36888); assay: FLT3 fluorescence polarization kinase assay; type: biochemical
T1 construct: human FLT3 receptor (a.a. 571-993)
T1 sequence (P36888 571-993): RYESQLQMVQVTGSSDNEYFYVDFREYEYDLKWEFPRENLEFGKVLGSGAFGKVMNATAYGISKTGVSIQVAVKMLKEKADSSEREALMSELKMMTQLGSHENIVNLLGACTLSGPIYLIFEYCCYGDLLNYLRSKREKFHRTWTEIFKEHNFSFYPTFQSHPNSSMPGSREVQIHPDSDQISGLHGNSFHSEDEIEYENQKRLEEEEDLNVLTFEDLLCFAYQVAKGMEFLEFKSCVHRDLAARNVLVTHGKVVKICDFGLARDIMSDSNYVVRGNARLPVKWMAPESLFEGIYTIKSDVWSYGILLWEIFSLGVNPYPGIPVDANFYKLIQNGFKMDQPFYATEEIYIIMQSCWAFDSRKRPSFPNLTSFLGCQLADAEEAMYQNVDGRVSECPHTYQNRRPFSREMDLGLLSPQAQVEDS
Source text: The FLT3 FP assay utilizes the fluorescein-labeled phosphopeptide and the anti-phosphotyrosine antibody included in the Panvera Phospho-Tyrosine Kinase Kit (Green) supplied by Invitrogen. When FLT3 phosphorylates polyGlu4Tyr, the fluorescein-labeled phosphopeptide is displaced from the anti-phosphotyrosine antibody by the phosphorylated poly Glu4Tyr, thus decreasing the FP value. […] The kinase reaction is stopped with the addition of EDTA. The fluorescein-labeled phosphopeptide and the anti-phosphotyrosine antibody are added and incubated for 30 minutes at room temperature.
All data points are an average of triplicate samples. Inhibition and IC50 data analysis was done with GraphPad Prism using a non-linear regression fit with a multiparamater, sigmoidal dose-response (variable slope) equation.

MV4-11 cells = assay: Inhibition of MV4-11 cell proliferation (CellTiterGlo, 72 h); type: cell-based; conditions: Homo sapiens; 72 h growth inhibition
Experimental: To assess the cellular potency of the FLT3 inhibitors of Formula I′, FLT3 specific growth inhibition was measured in the leukemic cell line MV4-11 (ATCC Number: CRL-9591). […] MV4-11 cells cannot grow and survive without active FLT3ITD.
To measure proliferation inhibition by test compounds, the luciferase based CellTiterGlo reagent (Promega), which quantifies total cell number based on total cellular ATP concentration, was used. Cells are plated at 10,000 cells per well in 100 ul of in RPMI media containing penn/strep, 10% FBS and 1 ng/ml GM-CSF or 1 ng/ml IL-3 for MV4-11 and Baf3 cells respectively.
Compound dilutions or 0.1% DMSO (vehicle control) are added to cells and the cells are allowed to grow for 72 hours at standard cell growth conditions (37° C., 5% CO2). For activity measurements in MV4-11 cells grown in 50% plasma, cells were plated at 10,000 cells per well in a 1:1 mixture of growth media and human plasma (final volume of 100 μL). To measure total cell growth an equal volume of CellTiterGlo reagent was added to each well, according to the manufacturer's instructions, and luminescence was quantified. Total cell growth was quantified as the difference in luminescent counts (relative light units, RLU) of cell number at Day 0 compared to total cell number at Day 3 (72 hours of growth and/or compound treatment). One hundred percent inhibition of growth is defined as an RLU equivalent to the Day 0 reading. Zero percent inhibition was defined as the RLU signal for the DMSO vehicle control at Day 3 of growth. All data points are an average of triplicate samples. […] Inhibition and IC50 data analysis was done with GraphPad Prism using a non-linear regression fit with a multiparamater, sigmoidal dose-response (variable slope) equation.
MV4-11 cells express the FLT3 internal tandem duplication mutation, and thus are entirely dependent upon FLT3 activity for growth. […] In contrast, the Baf3 cell proliferation is driven by the cytokine IL-3 and thus are used as a non-specific toxicity control for test compounds.

MV4-11 AML cells = assay: Cell proliferation assay and combination index analysis, MV4-11; type: cell-based, human; conditions: single agent; depending on the cell type
Source text: (§1) All data points are an average of triplicate samples.
as §1

MV4-11 tumor xenografts = assay: MV4-11 human tumor xenograft regression model; type: in vivo, nude mice; conditions: Tipifarnib alone 50 mg/kg po
Experimental: Female athymic nude mice (CD-1, nu/nu, 9-10 weeks old) were obtained from Charles River Laboratories (Wilmington, Mass.) and were maintained according to NIH standards. All mice were group housed (5 mice/cage) under clean-room conditions in sterile micro-isolator cages on a 12-hour light/dark cycle in a room maintained at 21-22° C. and 40-50% humidity. Mice were fed irradiated standard rodent diet and water ad libitum. All animals were housed in a Laboratory Animal Medicine facility that is fully accredited by the American Association for Assessment and Accreditation of Laboratory Animal Care (AAALAC). […]
The time course of the inhibitory effects of FLT3 inhibitor compounds on the growth of MV4-11 tumors is illustrated in FIG. 1. […] Percent inhibition (% I) of tumor growth was calculated versus tumor growth in the vehicle-treated Control group on the last study day.
Statistical significance versus Control was determined by Analysis of Variance (ANOVA) followed by Dunnett's t-test: * p<0.05; ** p<0.01.
(See FIG. 2). […] Percent Inhibition was calculated versus the mean tumor weight in the vehicle-treated control group. Statistical significance versus Control was determined by ANOVA followed by Dunnett's t-test: ** p<0.01. […]

[2] = Body weight and overt toxicity in tumor-bearing mice; conditions: alone or in combination
Experimental: Female athymic nude mice weighing no less than 20-21 grams were inoculated subcutaneously in the left inguinal region of the thigh with 5×10^6 tumor cells in a delivery volume of 0.2 mL. For regression studies, the tumors were allowed to grow to a pre-determined size prior to initiation of dosing. […] Mice were dosed orally by gavage with vehicle (control group) or compound at various doses twice-daily (b.i.d.) during the week and once-daily (q.d.) on weekends. […] If tumors in the control mice reached ˜10% of body weight (˜2.0 grams), the study was to be terminated. […] During the study, tumor growth was measured three times-a-week (M, W, F) using electronic Vernier calipers. Tumor volume (mm^3) was calculated using the formula […], where L=length (mm) and W=width (shortest distance in mm) of the tumor. […]
Female athymic nude mice weighing no less than 20-21 grams were inoculated subcutaneously in the left inguinal region of the thigh with 5×10^6 tumor cells in a delivery volume of 0.2 mL. For regression studies, the tumors were allowed to grow to a pre-determined size prior to initiation of dosing. […] During the study, tumor growth was measured three times-a-week (M, W, F) using electronic Vernier calipers. Tumor volume (mm^3) was calculated using the formula […], where L=length (mm) and W=width (shortest distance in mm) of the tumor. […]

[3] = cited from earlier work
[4] = multicenter Phase II trial, relapsed AML
[5] = patients with relapsed and refractory AML

SMILES	IC50 [1] [µM]	IC50 (MV4-11 cells) [µM]	further results
COc1cc2ncc(C#N)c(N3CCC(OC(=O)Nc4ccc(OC(C)C)cc4)CC3)c2cc1OC [Compound 40, (4-Isopropoxy-phenyl)-carbamic acid 1-(3-cyano-6,7-dimethoxy-quinolin-4-yl)-piperidin-4-yl ester]	> 10		
Cn1cncc1C(N)(c1ccc(Cl)cc1)c1ccc2c(c1)c(-c1cccc(Cl)c1)cc(=O)n2C (single isomer, unassigned; (+)) [Tipifarnib, (+)-6-[amino(4-chlorophenyl)(1-methyl-1H-imidazol-5-yl)methyl]-4-(3-chlorophenyl)-1-methyl-2(1H)-quinolinone]			potency range (MV4-11 AML cells): high nanomolar to high picomolar range; effect on tumor volume vs control (MV4-11 tumor xenografts; 9 days, Day 9): not significantly reduced; also recorded: ineffective; effect on tumor growth (MV4-11 tumor xenografts; 16 days): ineffective; overt toxicity ([2]; 9-day treatment): No overt toxicity; overt toxicity ([2]; 16-day treatment): No overt toxicity; >50% reduction in bone marrow blasts [3, 4]: 31 of 50; complete responses (bone marrow blasts <5%) [3, 4]: 17 of 50; patients achieving complete remission [3, 5]: 2 patients; response rate [3, 5]: ~30%
CC(C)Oc1ccc(NC(=O)OC2CCN(c3ccnc4ccccc34)C2)cc1 (stereo not shown) [Compound 39]	7.14	> 10	
COc1cc2ncnc(N3CCC(OC(=O)Nc4ccc(OC5CCC5)nc4)CC3)c2cc1OC [Compound 11, (6-Cyclobutoxy-pyridin-3-yl)-carbamic acid 1-(6,7-dimethoxy-quinazolin-4-yl)-piperidin-4-yl ester]	0.028	0.071	
CC(C)Oc1ccc(NC(=O)NC2CCN(c3ccnc4ccccc34)C2)cc1 (stereo not shown) [Compound 38, (4-Isopropoxy-phenyl)-3-(1-quinolin-4-yl)-pyrrolidin-3-yl-urea]	3.15	> 3	
COc1cc2ncnc(N3CCC(C(=O)Nc4cccc(OC(C)C)c4)CC3)c2cc1OC [Compound 30, 1(-6,7-Dimethoxy-quinazolin-4-yl)-piperidine-4-carboxylic acid (3-isopropoxy-phenyl)-amide]	0.563	2.31	
CC(C)c1ccc(NC(=O)OC2CCN(c3ccnc4ccccc34)C2)cc1 (stereo not shown) [Compound 34]	1.05	6.4	

Further lines, with some results ahead:

IC50 [1] [µM]	IC50 (MV4-11 cells) [µM]	SMILES	further results
0.408	> 10	COc1cc2ncnc(N3CC(CNC(=O)Nc4ccc(OC(C)C)cc4)C3)c2cc1OC [Compound 25, 1-[1-(6,7-Dimethoxy-quinazolin-4-yl)-azetidin-3-ylmethyl]-3-(4-isopropoxy-phenyl)-urea]	
0.026	1.1	CC(C)c1ccc(NC(=O)OC2CCN(c3ccnc4ccccc34)CC2)cc1 [Compound 10]	
0.457	5.3	CC(C)c1ccc(NC(=O)NC2CCN(c3ccnc4ccccc34)C2)cc1 (stereo not shown) [Compound 27, (4-Isopropyl-phenyl)-3-(1-quinolin-4-yl)-pyrrolidin-3-yl-urea]	
0.29	0.22	CC(C)c1ccc(NC(=O)OC2CCN(c3ncnc4ccccc34)C2)cc1 (stereo not shown) [Compound 24, (4-Isopropyl-phenyl)-carbamic acid 1-quinazolin-4-yl-pyrrolidin-3-yl ester]	
